{"source": "patent US20190079094A1", "about": "“SUBCELLULAR LOCALIZATION OF TARGET ANALYTES” (Beckman Coulter, Inc., priority 2016, published 2019)", "format_in_all_cases": "cell-based", "key": {"[1]": {"system": "NF-κB and AKT signaling in whole-blood monocytes and T cells", "assay": "LPS stimulation of whole blood, cytoplasmic vs. nuclear signaling", "settings": "1 μg/mL LPS", "description": "FIGS. 7A and 7B. Stimulation of Monocytes with 1 μg/mL LPS. A) Comparison of the scatter profiles between Buffer 1 and Buffer 2 lysis, as well as the gating workflow. B) Cytoplasmic vs. nuclear signaling in whole-blood monocytes. C) Cytoplasmic vs. nuclear signaling in T cells.\n(§1) The protocol for processing whole blood samples is as follows (see FIG. 1 for a workflow): 1) The sample is first mixed 1:1 with fixative, vortexed, and then incubated for 10 minutes. An extra control tube is included for each buffer, which is stained with all antibodies except for the specific signaling or target antibodies being tested in order to subtract the background signal. […] 6) Once stained, the samples are again washed 2× with PBS or wash buffer, resuspended in PBS+0.5% PFA, and read on a flow cytometer.\n(§2) After data acquisition, the samples are gated, compensated, and analyzed as standard flow cytometry samples. […] For example, if staining for the subcellular distribution of FoxP3, where the Background MFIs for the Cytoplasm and Whole Cell are 1.5 and the raw FoxP3 signal is 3.5 and 31.5 for the Cytoplasm and Whole Cell, respectively, then the Cytoplasmic MFI would be calculated to be 2 (i.e., 3.5 (raw)−1.5 (background)=2) and the Nuclear MFI would be calculated to be 28 (i.e., 31.5 (raw)−1.5 (background)−2 (Cytoplasm)=28). […]"}, "[2]": {"system": "CREB, RelA and ERK phosphorylation in monocytes", "assay": "Stimulation of monocytes with LPS or GM-CSF, cytoplasmic vs. nuclear signaling", "settings": "primarily cytoplasm, 1 μg/mL LPS or 100 ng/mL GM-CSF", "description": "FIG. 8. Differential Signaling in Monocytes Induced by 1 μg/mL LPS vs. 100 ng/mL GM-CSF. A) Both LPS and GM-CSF induced CREB phosphorylation at S133, accumulating maximally in the nucleus by 10 min. B) LPS stimulation induced RelA phosphorylation maximally by 10 min in both the cytoplasm and nucleus, though predominantly in the nucleus. C) Both LPS and GM-CSF stimulated ERK phosphorylation primarily in the cytoplasm, maximally by 5 min for GM-CSF and 10 min for LPS.\nas §1, with “signal. The background control may also be labeled with isotype-control antibodies for more precise determination of non-specific binding, especially in cells that have characteristically high non-specific binding, such as neutrophils. For indirect antibody labeling, omitting the primary antibody, but still utilizing the secondary antibody, is a common method for determining the degree of non-specific background signal attributable to the secondary antibody, which is typically higher than the direct conjugates of target antibodies.” for “signal.”\nas §2"}, "granulocytes": {"system": "granulocytes", "assay": "Detergent titration for differential permeabilization of granulocytes (HSP60, Lamin A/C)", "settings": "detergent alone", "description": "FIG. 6. Titration of Detergents In Order to Identify the Optimal Concentrations for Cytoplasmic vs. Nuclear Membrane Permeabilization of Granulocytes. […] As in FIG. 5, HSP60 and Lamin A/C were used to indicate the degree of mitochondrial inner membrane and nuclear membrane permeabilization, respectively.\nFor Peripheral Blood Mononuclear Cells (PBMCs), cell lines, and other purified cells, Buffer 1 and Buffer 2 have different compositions than for whole blood; however, the protocol is otherwise the same. Most cell lines perform similar to PBMCs. In addition, whole-blood granulocytes may require a different buffer combination to appropriately permeabilize their cytoplasmic vs. nuclear compartments.\nIn some cases, using the defined buffers for the Subcellular Localization Kit may not effectively and reproducibly permeabilize granulocytes as they do mononuclear cells, and can be better targeted with a different detergent combination. […] Tween 20 at a concentration >0.5% can be seen to permeabilized the cytoplasmic+mitochondrial membranes without permeabilizing the nuclear membrane, while Digitonin and TX-100 alone at lower concentrations will permeabilize the nuclear or mitochondrial membranes, respectively. Ultimately, differential permeabilization of granulocytes can be more complex than for mononuclear cells depending on the target organelles."}}, "note": "Entries after “also recorded” stand apart in the source; their conditions may differ."}
{"molecule": "lipopolysaccharide [LPS]", "values": [{"measurement": "signaling induced in T cells", "setting": "[1]", "result": "did not stimulate T cells; also recorded: lack of any signaling induced in T cells"}, {"measurement": "time of peak ERK phosphorylation (S202/T204)", "setting": "[2]", "result": "≤ 10", "unit": "min"}]}
{"molecule": "CCCCCCCCCCCC(=O)OCCOCCOCCOCCOCCOCCOCCOCCOCCOCCOCCOCCOCCOCCOCCOCCOCCOCCOCCOCCOCC(OCCOCCOCCOCCOCCOCCOCCOCCOCCOCCOCCOCCOCCOCCOCCOCCOCCOCCOCCOCCO)C1OCC(OCCOCCOCCOCCOCCOCCOCCOCCOCCOCCOCCOCCOCCOCCOCCOCCOCCOCCOCCOCCO)C1OCCOCCOCCOCCOCCOCCOCCOCCOCCOCCOCCOCCOCCOCCOCCOCCOCCOCCOCCOCCO", "note": "(stereo not drawn) [Tween 20, Polysorbate 20]", "values": [{"measurement": "concentration permeabilizing the cytoplasmic+mitochondrial membranes without the nuclear membrane", "setting": "granulocytes", "result": "> 0.5", "unit": "%"}]}
